Earlier results, collected in paper PMC4832855 (Cancer Science, 2016).

Legend:
Conditions in all cases: cited from earlier work
[1] = tested on: patients
[2] = tested on: Jak2
[3] = tested on: Btc
[4] = tested on: IGF‐1R
[5] = tested on: Src
[6] = tested on: Met
[7] = tested on: AurA
[8] = tested on: IR
[9] = tested on: Lck
[10] = tested on: p381
[11] = tested on: AurB

In the case of `C[C@@]1(C(=O)Nc2ccc(F)nc2)CCCN1c1nc(Nc2cc(C3CC3)n[nH]2)c2cccn2n1` [BMS‐754807], the “Activity as monotherapy in early clinical trials” value [1] is given as “only modest activity”.

In the case of `C[C@]1(O)C[C@@H](c2nc(-c3ccc4ccc(-c5ccccc5)nc4c3)c3c(N)nccn32)C1` [Linsitinib], the IC50 [2] is given as over 10 µM, the IC50 [3] is given as over 10 µM and the IC50 [4] is given as […]. The “Activity as monotherapy in early clinical trials” value [1] was “only modest activity”, the “Overall or progression‐free survival compared to placebo” value ([1]; monotherapy, phase III, metastatic adrenocortical carcinoma) was “did not increase” and the IC50 [5] was over 10 µM. The IC50 [6] was over 10 µM, the IC50 [7] was over 10 µM and the IC50 [8] was 0.075 µM. The IC50 [9] was over 10 µM, the IC50 [10] was over 10 µM and the IC50 [11] was over 10 µM.
